In patent US4581354A, “3-arylcarbonyl- and 3-cycloalkylcarbonyl-1-aminoalkyl-1H-indoles, compositions and use” (Sterling Drug Inc., priority 1985, dated 1986):
Structures can show the parent of a compound that is named as a salt.

What follows are molecules tested on acetylcholine-induced abdominal constriction (assay: animal or person). Conditions: Mus musculus, iv, 10 mg./kg. i.v.; read-out: Ach percent inhibition.
Type: in vivo, mice
Source text: The test procedures used to determine the analgesic activities of the compounds have been described in detail in the prior art and are as follows: The acetylcholine-induced abdominal constriction test, which is a primary analgesic screening test designed to measure the ability of a test agent to suppress acetylcholine-induced abdominal constriction in mice, described by Collier et al., Brit. J. Pharmacol. Chemotherap. 32, 295 (1968); a modification of the anti-bradykinin test, which is also a primary analgesic screening procedure, described by Berkowitz et al., J. Pharmacol. Exptl. Therap. 177, 500-508 (1971), Blane et al., J. Pharm. Pharmacol. 19, 367-373 (1967), Botha et al., Eur. J. Pharmacol. 6, 312-321 (1969) and Deffenu et al., J. Pharm. Pharmacol. 18, 135 (1966); and the rat paw flexion test, described by Kuzuna et al., Chem. Pharm. Bull., 23, 1184-1191 (1975), Winter et al., J. Pharm. Exptl. Therap., 211, 678-685 (1979) and Capetola et al., J. Pharm. Exptl. Therap. 214, 16-23 (1980).
Unless noted otherwise, all data were obtained on oral administration and are expressed either as the ED50 or as the percent inhibition at a given dose level (thus 30/100 or 30% inhibition at […].)
In some instances, the compounds were retested two or more times, and ED50 values were calculated for each series of repeat tests. In such instances, each of the ED50 values so-obtained is given in a series of values, thus 6, 28, 30, 43 in the case of the species of Example 1AW in the acetylcholine-induced abdominal constriction test.
Work on `Cc1c(C(=O)c2cccc3ccccc23)c2ccccc2n1CCN1CCN(C)CC1` [Example 3J] yielded an inhibition in vivo at 10 mg/kg of 30%.

Same assay, conditions: Mus musculus, iv; read-out: Ach ED50
`Cc1c(C(=O)c2cccc3ccccc23)c2ccccc2n1CCN1CCCC(O)C1` (stereo not shown) [Example 3H] gave an ED50 of 9.7 mg/kg.

Same assay, conditions: Mus musculus, po, 30 mg./kg. oral; read-out: Ach percent inhibition
In the case of `CC(CN1CCOCC1)n1cc(C(=O)c2cccn2C)c2ccccc21` (stereo not shown) [Example 2F], the inhibition in vivo at 30 mg/kg is reported as 20%.

Same assay, conditions: Mus musculus, po, 100 mg./kg. oral; read-out: Ach percent inhibition
In the case of `Cc1c(C(=O)c2ccc(F)cc2F)c2cc(F)ccc2n1CCCN1CCOCC1` [Example 2AO], the inhibition in vivo at 100 mg/kg is reported as 40%.
`Cc1c(C(=O)c2ccc(Br)cc2)c2cc(F)ccc2n1CCCN1CCOCC1` [Example 2AR] showed an inhibition in vivo at 100 mg/kg of 50%.
In the case of `Cc1cccc(C(=O)c2c(C)n(CCN3CCOCC3)c3ccccc23)c1C` [Example 2AT], the inhibition in vivo at 100 mg/kg is reported as 20%.
For `Cc1c(C(=O)c2cc(Cl)cc(Cl)c2)c2ccccc2n1CCN1CCOCC1` [Example 2AU], the inhibition in vivo at 100 mg/kg was 30%.
Work on `Cc1cc(C)cc(C(=O)c2c(C)n(CCN3CCOCC3)c3ccccc23)c1` [Example 2AV] yielded an inhibition in vivo at 100 mg/kg of 10%.
`Cc1cccc(C(=O)c2c(C)n(CCN3CCOCC3)c3ccccc23)c1` [Example 2AW] showed an inhibition in vivo at 100 mg/kg of 20%.
`Cc1c(C(=O)c2cccc(Cl)c2)c2ccccc2n1CCN1CCOCC1` [Example 2AX] gave an inhibition in vivo at 100 mg/kg of 0%.
In the case of `Cc1c(C(=O)c2ccccc2F)c2cc(F)ccc2n1CCCN1CCOCC1` [Example 2BB, 5-fluoro-3-(2-fluorobenzoyl)-2-methyl-1-[3-(4-morpholinyl)propyl]-1H-indole], the inhibition in vivo at 100 mg/kg is reported as 40%.
`Cc1c(C(=O)c2ccoc2)c2ccccc2n1CCN1CCOCC1` [Example 2BC] showed an inhibition in vivo at 100 mg/kg of 10%.
`Cc1c(C(=O)c2ccc(Br)cc2)c2ccccc2n1CCN1CCOCC1` [Example 2BE] gave an inhibition in vivo at 100 mg/kg of 30%.
In the case of `Cc1c(C(=O)c2ccc3[nH]cnc3c2)c2ccccc2n1CCN1CCOCC1` [Example 2BF], the inhibition in vivo at 100 mg/kg is reported as 30%.
Work on `CC(CN1CCOCC1)n1cc(C(=O)c2ccc(F)cc2)c2ccccc21` (stereo not shown) [Example 2D] yielded an inhibition in vivo at 100 mg/kg of 20%.
For `CC(CN1CCOCC1)n1cc(C(=O)c2cccn2C)c2ccccc21` (stereo not shown) [Example 2F], the inhibition in vivo at 100 mg/kg was 40%.
`Cc1c(C(=O)c2ccccc2C#N)c2ccccc2n1CCN1CCOCC1` [Example 2L] gave an inhibition in vivo at 100 mg/kg of 10%.
For `Cc1c(C(=O)c2cccc(C#N)c2)c2ccccc2n1CCN1CCOCC1` [Example 2M], the inhibition in vivo at 100 mg/kg was 20%.
Work on `Cc1c(C(=O)c2ccn(C)c2)c2ccccc2n1CCN1CCOCC1` [Example 2N] yielded an inhibition in vivo at 100 mg/kg of 20%.
In the case of `Cc1c(C(=O)c2ccsc2)c2ccccc2n1CCN1CCOCC1` [Example 2P], the inhibition in vivo at 100 mg/kg is reported as 30%.
In the case of `Cc1c(C(=O)C2CCCCC2)c2ccccc2n1CCN1CCOCC1` [Example 2Q], the inhibition in vivo at 100 mg/kg is reported as 20%.
With `Cc1c(C(=O)c2ccc(C(C)(C)C)cc2)c2ccccc2n1CCN1CCOCC1` [Example 2R] the inhibition in vivo at 100 mg/kg was 10%.
For `Cc1c(C(=O)c2cc3ccccc3s2)c2ccccc2n1CCN1CCOCC1` [Example 2S], the inhibition in vivo at 100 mg/kg was 0%.
`Cc1c(C(=O)c2cccn2C)c2ccccc2n1CCN1CCOCC1` [Example 2T] gave an inhibition in vivo at 100 mg/kg of 30%.
For `Cc1ccc(C(=O)c2c(C)n(CCN3CCOCC3)c3ccccc23)cc1C` [Example 2V], the inhibition in vivo at 100 mg/kg was 20%.
For `CCN(CC)CCCCn1c(C)c(C(=O)c2ccc(OC)cc2)c2ccccc21` [Example 3AD], the inhibition in vivo at 100 mg/kg was 100%.
`COc1ccc(C(=O)c2c(C)n(CCCN3CCS(=O)(=O)CC3)c3ccc(F)cc23)cc1` [Example 3AH] was tested, and the inhibition in vivo at 100 mg/kg was 30%.
In the case of `Cc1c(C(=O)c2cccc3ccccc23)c2ccccc2n1CCN1CCNCC1` [Example 3I], the inhibition in vivo at 100 mg/kg is reported as 30%.
`Cc1c(C(=O)c2cccc3ccccc23)c2ccccc2n1CCN1CCOC(C)C1` (stereo not shown) [Example 3M] gave an inhibition in vivo at 100 mg/kg of 10%.
`COc1ccc(C(=O)c2c(C)n(CCN3CCCC(NC(C)=O)C3)c3ccccc23)cc1` (stereo not shown) [Example 3N, 1-[2-(3-acetylamino-1-piperidinyl)ethyl]-2-methyl-3-(4-methoxybenzoyl)-1H-indole] was tested, and the inhibition in vivo at 100 mg/kg was 40%.
Work on `COc1ccc(C(=O)c2c(C)n(CCN3CCCCC3CC3CCCCC3)c3ccccc23)cc1` (stereo not shown) [Example 3Q] yielded an inhibition in vivo at 100 mg/kg of 40%.
With `COc1ccc(C(=O)c2c(C)n(CCN3CC(C)OC(C)C3)c3ccccc23)cc1` (stereo not shown) [Example 3R] the inhibition in vivo at 100 mg/kg was 40%.
Work on `COc1ccc(C(=O)c2c(C)n(CCN3CCN(C=O)CC3)c3ccccc23)cc1` [Example 3S, 1-[2-(4-formyl-1-piperazinyl)ethyl]-2-methyl-3-(4-methoxybenzoyl)-1H-indole] yielded an inhibition in vivo at 100 mg/kg of 40%.
Molecule `COc1ccc(C(=O)c2c(C)n(CCN3CCSCC3)c3ccccc23)cc1` [Example 3U, 2-methyl-3-(4-methoxybenzoyl)-1-[2-(4-thiomorpholinyl)ethyl]-1H-indole] has an inhibition in vivo at 100 mg/kg of 30%.

Same assay, conditions: Mus musculus, po, 300 mg./kg. oral; read-out: Ach percent inhibition
Work on `Cc1ccc(C(=O)c2c(C)n(C(C)CN3CCOCC3)c3ccccc23)cc1` (stereo not shown) [Example 2B] yielded an inhibition in vivo at 300 mg/kg of 47%.
`CC(CN1CCOCC1)n1cc(C(=O)c2ccc(F)cc2)c2ccccc21` (stereo not shown) [Example 2D] gave an inhibition in vivo at 300 mg/kg of 40%.
With `CC(CN1CCOCC1)n1cc(C(=O)c2cccn2C)c2ccccc21` (stereo not shown) [Example 2F] the inhibition in vivo at 300 mg/kg was 33%.

Same assay, conditions: Mus musculus, po, 550 mg./kg. oral; read-out: Ach percent inhibition
`Cc1ccc(C(=O)c2c(C)n(C(C)CN3CCOCC3)c3ccccc23)cc1` (stereo not shown) [Example 2B] was tested, and the inhibition in vivo at 550 mg/kg was 33%.

Same assay, conditions: Mus musculus, po, 1000 mg./kg. oral; read-out: Ach percent inhibition
With `CC(CN1CCOCC1)n1cc(C(=O)c2ccc(F)cc2)c2ccccc21` (stereo not shown) [Example 2D] the inhibition in vivo at 1000 mg/kg was 67%.

Same assay, conditions: Mus musculus, po; read-out: Ach ED50
`Cc1c(C(=O)c2ccc(F)cc2F)c2ccccc2n1CCN1CCOCC1` [Example 2AN] was tested, and the ED50 was 90 mg/kg.
In the case of `COc1ccc(C(=O)c2c(C)n(CCN3CCOCC3)c3ccccc23)c(F)c1` [Example 2AP], the ED50 is reported as 27 mg/kg.
Molecule `Cc1c(C(=O)c2ccccc2Cl)c2ccccc2n1C(C)CN1CCOCC1` (stereo not shown) [Example 2AZ] has an ED50 of 26 mg/kg.
`Cc1c(C(=O)c2ccccc2F)c2cc(F)ccc2n1C(C)CN1CCOCC1` (stereo not shown) [Example 2BD] was tested, and the ED50 was 15 mg/kg.
For `CC(CN1CCOCC1)n1cc(C(=O)c2ccccc2F)c2ccccc21` (stereo not shown) [Example 2E], the ED50 was 33 mg/kg.
For `Cc1c(C(=O)c2ccc(F)cc2)c2ccccc2n1C(C)CN1CCOCC1` (stereo not shown) [Example 2G], the ED50 was 42 mg/kg.
Work on `Cc1c(C(=O)c2cccn2C)c2ccccc2n1C(C)CN1CCOCC1` (stereo not shown) [Example 2H] yielded an ED50 of 49 mg/kg.
`Cc1cccc2c(C(=O)c3ccccc3)cn(C(C)CN3CCOCC3)c12` (stereo not shown) [Example 2J] showed an ED50 of 60 mg/kg.
Molecule `Cc1ccccc1C(=O)c1c(C)n(CCN2CCOCC2)c2ccccc12` [Example 2U] has an ED50 of 88 mg/kg.
Molecule `Cc1c(C(=O)C=Cc2ccccc2)c2ccccc2n1CCN1CCOCC1` [Example 2W] has an ED50 of 72 mg/kg.
With `COc1ccc(C(=O)c2c(C)n(CCN(C)CCO)c3ccccc23)cc1` [Example 3-O] the ED50 was 76 mg/kg.
`COc1ccc(C(=O)c2c(C)n(CCN3CCC(O)CC3)c3ccccc23)cc1` [Example 3A, 2-methyl-3-(4-methoxybenzoyl)-1-[2-(4-hydroxy-1-piperidinyl)ethyl]-1H-indole hydrochloride hemihydrate] showed an ED50 of 68.1 mg/kg.
`COc1ccc(C(=O)c2c(C)n(CCCCN3CCOCC3)c3ccccc23)cc1` [Example 3AA] gave an ED50 of 22 mg/kg.
`COc1ccc(C(=O)c2c(C)n(CCCCN3CCCCC3)c3ccccc23)cc1` [Example 3AB] was tested, and the ED50 was 25 mg/kg.
`COc1ccc(C(=O)c2c(C)n(CCCCN3CCCC3)c3ccccc23)cc1` [Example 3AC] showed an ED50 of 21 mg/kg.
In the case of `COc1ccc(C(=O)c2c(C)n(CCCN3CCSCC3)c3ccc(F)cc23)cc1.Cl` [Example 3AF, 5-fluoro-2-methyl-3-(4-methoxybenzoyl)-1-[3-(4-thiomorpholinyl)propyl]-1H-indole hydrochloride], the ED50 is reported as 139 mg/kg.
For `CCNCCCn1c(C)c(C(=O)c2ccc(OC)cc2)c2cc(F)ccc21` [Example 3AG], the ED50 was 42 mg/kg.
For `COc1ccc(C(=O)c2c(C)n(CCCN(C)CCO)c3ccc(F)cc23)cc1` [Example 3AJ], the ED50 was 35 mg/kg.
Work on `COc1ccc(C(=O)c2c(C)n(CCN3CCN(C)CC3)c3ccccc23)cc1` [Example 3C] yielded an ED50 of 53 mg/kg.
`CCNCCn1c(C)c(C(=O)c2ccc(OC)cc2)c2ccccc21` [Example 3K] showed an ED50 of 45.7 mg/kg.
With `COCCNCCn1c(C)c(C(=O)c2ccc(OC)cc2)c2ccccc21` [Example 3L] the ED50 was 44 mg/kg.
`COc1ccc(C(=O)c2c(C)n(CCN3CCOC(C)C3)c3ccccc23)cc1` (stereo not shown) [Example 3P] was tested, and the ED50 was 71 mg/kg.
For `COc1ccc(C(=O)c2c(C)n(CCN3CCCNCC3)c3ccccc23)cc1` [Example 3T], the ED50 was 53 mg/kg.
`COc1ccc(C(=O)c2c(C)n(CCN3CCS(=O)(=O)CC3)c3ccccc23)cc1` [Example 3V] was tested, and the ED50 was 254 mg/kg.
Work on `COc1ccc(C(=O)c2c(C)n(CCCN3CCCC(O)C3)c3ccc(F)cc23)cc1` (stereo not shown) [Example 3W] yielded an ED50 of 49 mg/kg.
With `COc1ccc(C(=O)c2c(C)n(CCCN3CCOC(C)C3)c3ccc(F)cc23)cc1` (stereo not shown) [Example 3Y] the ED50 was 69 mg/kg.
In the case of `COc1ccc2c(C(=O)c3ccc(N)cc3)c(C)n(CCN3CCOCC3)c2c1` [Example 4C, 2-methyl-3-(4-aminobenzoyl)-6-methoxy-1-[2-(4-morpholinyl)ethyl]-1H-indole], the ED50 is reported as 37 mg/kg.
In the case of `Cc1c(C(=O)c2ccc(N)cc2)c2ccccc2n1C(C)CN1CCOCC1` (stereo not shown) [Example 4D, 2-methyl-3-(4-aminobenzoyl)-1-[1-methyl-2-(4-morpholinyl)ethyl]-1H-indole], the ED50 is reported as 24 mg/kg.
